# Measurements taken from patent publication US20050053631A1, “Method of decreasing sebum production” (Unilever Home & Personal Care USA, Division of Conopco, Inc., priority 2003, published 2005).
# Tested on: sebocytes
# Assay: In Vitro Sebocyte Lipogenesis Assay (14-C acetate incorporation into lipids of cultured sebocytes)
# Type: cell-based
# Settings: cultured human sebocytes; for % decrease in lipid syn.: 24 h, relative to vehicle control
# Experimental: In Vitro Sebocyte Lipogenesis Assay
# Human sebaceous glands were isolated from the nose of a person and cultured using submerged tissue culture techniques (Bajor et al, J. Invest. Dermatol., 102:1994, p. 564). These sebocytes accumulate intracellular lipid droplets characteristic of mature human sebum.
# Harvested and passaged sebocytes were added to each well of a 96 well tissue culture plate and incubated at 37° C. in-the presence of 7.5% CO2 for 10 days. The growth medium was changed three times per week. On the day of experimentation, the growth medium was removed and the sebocytes washed three times with phosphate buffered saline (PBS). Fresh phenol-free sebocyte growth media in 0.2 ml amount containing various concentrations of active agent speculated to inhibit lipogenesis was added to each well. Triplicate wells were utilized for each sample. […] The cultures were incubated at 37° C./7.5% CO2 for 24 hours. Radioactive label was prepared by adding 100 μl (micro-liters) of 14-C labelled acetic acid (Amersham, sodium salt, specific activity of 56 mCi/mmol) to 10 ml of 50 mM sodium acetate buffer. Then 50 μl was added to each well containing the sebocytes and active agents. The cultures were returned to the incubator for 4 hours. Thereafter the treatments and label were removed and the sebocytes rinsed three times with fresh PBS. Samples containing the 14-C label were extracted and the label counted using a Beckman scintillation counter. Triplicates were performed for each sample.
# For each 96 well tissue culture plate, 20 samples could be analyzed. Of these, 1 sample was reserved for media, 1 sample for DMSO or ethanol, and 1 sample for phenol red leaving 17 remaining samples.
compound,measurement,setting,value
"O=C(OC1Cc2c(O)cc(O)cc2OC1c1cc(O)c(O)c(O)c1)c1cc(O)c(O)c(O)c1 (single isomer, unassigned; (-)) [EGCG, (−)-epigallocatechin gallate]",% decrease in lipid syn.,8 uM,8.9%
same,% decrease in lipid syn.,40 uM,13.4%
same,% decrease in lipid syn.,200 uM,29.5%
same,% decrease in lipid syn.,1000 uM,90%
same,activity in reducing lipid synthesis in sebocytes (in words),,significant activity
"[2R,3S]-2,3-epoxy4-oxo-7,10-trans, trans-dodecanoic acid amide [Cerulenin]",% decrease in lipid syn.,1.6 uM,13.6%
same,% decrease in lipid syn.,5 uM,52.0%
same,% decrease in lipid syn.,10 uM,96.5%
same,% decrease in lipid syn.,40 uM,99.0%
same,% decrease in lipid syn.,concentration not printed (between 40 uM and 10 uM in the list),96.5%
same,activity in reducing lipid synthesis in sebocytes (in words),,significant activity
C=C/C(C)=C/[C@@]1(C)SC(=O)C(C)=C1O [Thiolactomycin],activity in reducing lipid synthesis in sebocytes (in words),,not to inhibit
Oc1cc(Cl)ccc1Oc1ccc(Cl)cc1Cl [Triclosan],% decrease in lipid syn.,20 uM,48.8%
same,% decrease in lipid syn.,40 uM,90%
same,% decrease in lipid syn.,100 uM,97.2%
same,activity in reducing lipid synthesis in sebocytes (in words),,significant activity
C=C1CCC(=O)O1 [γ-methylene γ-butyrolactone],activity in reducing lipid synthesis in sebocytes (in words),,ineffective
C=C1CCOC1=O [α-methylene-γ-butyrolactone],% decrease in lipid syn.,10 uM,1.3%
same,% decrease in lipid syn.,20 uM,13.2%
same,% decrease in lipid syn.,100 uM,53.3%
same,% decrease in lipid syn.,500 uM,100%
same,activity in reducing lipid synthesis in sebocytes (in words),,significant activity
